Measured values reported in patent US11091496B2, “Opioid ketal compounds and uses thereof” (priority 2013, dated 2021).
Read-outs that look alike come from different tables or passages of the source.

Assays:
[1] = Hydrolysis in fresh EDTA stabilized blood plasma at 37° C.; details: mixture of isomers, 1.1 mg, four hour period
[2] = Hydrolysis in Coca Cola, pH 4 buffer or pH 7 buffer, 3 days; format: physicochemical; details: 1 mg/ml; for Hydrolysis to Oxycodone: after 3 days
[3] = format: physicochemical; details: 0.1 N HCl 37° C.; for % hydrocodone, % Ketal in hydrolysis mixture: hydrocodone 1,3-propanediol ketal; for % hydrocodone, % Ketal in hydrolysis mixture / Hydrocodone, 2R,5R ketal in hydrolysis mixture / Hydrocodone, 2S,5S ketal in hydrolysis mixture / Oxycodone in hydrolysis mixture / % Oxycodone, % IVD in hydrolysis mixture / % Oxycodone, % Ketal a, b in hydrolysis mixture / % Oxycodone, % Ketal A, B in hydrolysis mixture: 1 mg/ml; for Hydrocodone, 2R,5R ketal in hydrolysis mixture: hydrocodone 2R,5R-hexanediol ketal tested separately; for Hydrocodone, 2S,5S ketal in hydrolysis mixture: hydrocodone 2S,5S-hexanediol ketal tested separately; for % Oxycodone, % IVA-IVD in hydrolysis mixture: total 1 mg/ml; for Oxycodone in hydrolysis mixture: from isomer IVC tested separately; for Oxycodone in hydrolysis mixture / % Oxycodone, % IVD in hydrolysis mixture: normalized; for % Oxycodone, % IVD in hydrolysis mixture: isomer IVD tested separately; for % Oxycodone, % Ketal a, b in hydrolysis mixture: mixture of oxycodone 3,5-octanediol ketals; for % Oxycodone, % Ketal A, B in hydrolysis mixture: mixture of oxycodone cis 1,2-cyclohexanedimethanol ketals
[4] = 5% acetic acid 100° C.; for % Oxycodone, % IVA-IVD in hydrolysis mixture: unreacted oxycodone + four isomers of Formula IV; for % Oxycodone, % IVA-IVD in hydrolysis mixture / % Oxycodone, % Va-Vd in hydrolysis mixture: 1 mg/ml; for % Oxycodone, % Va-Vd in hydrolysis mixture: unreacted oxycodone + four isomers of Formula V
[5] = Hydrolysis in Simulated Gastric Fluid (SGF) at 37° C., LC/MS; details: SGF 37° C.; for Hydrocodone in hydrolysis mixture: from hydrocodone 2,4-pentanediol ketal isomers, 1 mg/ml; for Oxycodone, Ketal A-D in hydrolysis mixture: oxycodone 2,4-pentanediol ketal isomers + unreacted oxycodone, 2 mg/nil

## COc1ccc2c3c1O[C@H]1C4(CCC5(O)[C@@H](C2)N(C)CC[C@]315)OC(C)CC(C)O4 (some centres unmarked) [Formula IV, oxycodone 2,4-pentanediol ketal]
[1]
  ketal hydrolyzed to parent opioid in blood plasma: approximately 6%
[2]; Coca Cola, pH 4 buffer, pH 7 buffer
  degree of hydrolysis after 3 days: very low degree of hydrolysis
[2]; Coca Cola, 23° C.
  Hydrolysis to Oxycodone: 5%
[2]; pH 4 Buffer, 37° C.
  Hydrolysis to Oxycodone: 4%
[2]; pH 7 Buffer, 37° C.
  Hydrolysis to Oxycodone: 0%
[3]; mixture of isomers
  time at which about 50% of the oxycodone is released: about 2.9 hours
  time by which about (almost) 90% oxycodone release occurs: ≤ 25 h
[4]; FIG. 12
  time to about 80% hydrolysis to oxycodone: about 2 hours
[4]; FIG. 12, FIG. 13
  time to almost completely hydrolyze to oxycodone: about 10 hours

## COc1ccc2c3c1O[C@H]1C(=O)CC[C@H]4[C@@H](C2)N(C)CC[C@]314 [Hydrocodone, hydrocodone, reference compound]
[5]; 0 h
  Hydrocodone in hydrolysis mixture: 1
[5]; 0.58 h
  Hydrocodone in hydrolysis mixture: 33.7
[5]; 1.25 h
  Hydrocodone in hydrolysis mixture: 45.9
[5]; 2 h
  Hydrocodone in hydrolysis mixture: 48.1
[5]; 3 h
  Hydrocodone in hydrolysis mixture: 55.1
[5]; 4 h
  Hydrocodone in hydrolysis mixture: 58.3
[3]; 0 h
  % hydrocodone, % Ketal in hydrolysis mixture: 6.9%
  Hydrocodone, 2R,5R ketal in hydrolysis mixture: 26.1
  Hydrocodone, 2S,5S ketal in hydrolysis mixture: 18.02
[3]; 0.57 h
  % hydrocodone, % Ketal in hydrolysis mixture: 34.3%
[3]; 1.25 h
  % hydrocodone, % Ketal in hydrolysis mixture: 47.7%
  Hydrocodone, 2R,5R ketal in hydrolysis mixture: 88.6
  Hydrocodone, 2S,5S ketal in hydrolysis mixture: 64.89
[3]; 2 h
  % hydrocodone, % Ketal in hydrolysis mixture: 58.2%
  Hydrocodone, 2R,5R ketal in hydrolysis mixture: 97.3
  Hydrocodone, 2S,5S ketal in hydrolysis mixture: 89.81
[3]; 3 h
  % hydrocodone, % Ketal in hydrolysis mixture: 67.8%
  Hydrocodone, 2R,5R ketal in hydrolysis mixture: 100
  Hydrocodone, 2S,5S ketal in hydrolysis mixture: 95.71
[3]; 4 h
  % hydrocodone, % Ketal in hydrolysis mixture: 74.4%
  Hydrocodone, 2R,5R ketal in hydrolysis mixture: 100
  Hydrocodone, 2S,5S ketal in hydrolysis mixture: 98
[3]; 0.5 h
  Hydrocodone, 2R,5R ketal in hydrolysis mixture: 65.4
  Hydrocodone, 2S,5S ketal in hydrolysis mixture: 47.82

## COc1ccc2c3c1O[C@H]1C(=O)CC[C@@]4(O)[C@@H](C2)N(C)CC[C@]314 [Oxycodone, oxycodone, reference compound]
[5]; 0 h
  Oxycodone, Ketal A-D in hydrolysis mixture: 7.3
[5]; 0.58 h
  Oxycodone, Ketal A-D in hydrolysis mixture: 19.9
[5]; 1.25 h
  Oxycodone, Ketal A-D in hydrolysis mixture: 35.3
[5]; 2 h
  Oxycodone, Ketal A-D in hydrolysis mixture: 43
[5]; 3 h
  Oxycodone, Ketal A-D in hydrolysis mixture: 51
[5]; 4 h
  Oxycodone, Ketal A-D in hydrolysis mixture: 58.7
[3]; 0 h
  % Oxycodone, % IVA-IVD in hydrolysis mixture: 11.4%
  Oxycodone in hydrolysis mixture: 1.3
  % Oxycodone, % IVD in hydrolysis mixture: 0.8%
  % Oxycodone, % Ketal a, b in hydrolysis mixture: 0.3%
  % Oxycodone, % Ketal A, B in hydrolysis mixture: 27.2%
[3]; 0.583 h
  % Oxycodone, % IVA-IVD in hydrolysis mixture: 25.5%
[3]; 1.167 h
  % Oxycodone, % IVA-IVD in hydrolysis mixture: 33%
[3]; 1.75 h
  % Oxycodone, % IVA-IVD in hydrolysis mixture: 44%
[3]; 2.33 h
  % Oxycodone, % IVA-IVD in hydrolysis mixture: 47.6%
[3]; 2.92 h
  % Oxycodone, % IVA-IVD in hydrolysis mixture: 50.9%
[3]; 4 h
  % Oxycodone, % IVA-IVD in hydrolysis mixture: 56.8%
  % Oxycodone, % Ketal a, b in hydrolysis mixture: 56.1%
[3]; 6.5 h
  % Oxycodone, % IVA-IVD in hydrolysis mixture: 66%
[3]; 9.75 h
  % Oxycodone, % IVA-IVD in hydrolysis mixture: 72.6%
[3]; 13.75 h
  % Oxycodone, % IVA-IVD in hydrolysis mixture: 79.7%
[3]; 25 h
  % Oxycodone, % IVA-IVD in hydrolysis mixture: 86.4%
[3]; 0.75 h
  Oxycodone in hydrolysis mixture: 28.5
[3]; 1.5 h
  Oxycodone in hydrolysis mixture: 46
[3]; 3.33 h
  Oxycodone in hydrolysis mixture: 81.2
[3]; 6 h
  Oxycodone in hydrolysis mixture: 95.3
[3]; 8 h
  Oxycodone in hydrolysis mixture: 97.9
[3]; 0.17 h
  % Oxycodone, % IVD in hydrolysis mixture: 26.9%
[3]; 0.33 h
  % Oxycodone, % IVD in hydrolysis mixture: 55.2%
  % Oxycodone, % Ketal a, b in hydrolysis mixture: 12.1%
[3]; 1 h
  % Oxycodone, % IVD in hydrolysis mixture: 89.2%
  % Oxycodone, % Ketal a, b in hydrolysis mixture: 26.5%
[3]; 2 h
  % Oxycodone, % IVD in hydrolysis mixture: 98%
  % Oxycodone, % Ketal a, b in hydrolysis mixture: 40.7%
  % Oxycodone, % Ketal A, B in hydrolysis mixture: 37.4%
[3]; 0.56 h
  % Oxycodone, % Ketal A, B in hydrolysis mixture: 28.1%
[3]; 1.25 h
  % Oxycodone, % Ketal A, B in hydrolysis mixture: 33.8%
[3]; 4.45 h
  % Oxycodone, % Ketal A, B in hydrolysis mixture: 56.4%
[4]; 0 h
  % Oxycodone, % IVA-IVD in hydrolysis mixture: 10.3%
  % Oxycodone, % Va-Vd in hydrolysis mixture: 1%
[4]; 0.5 h
  % Oxycodone, % IVA-IVD in hydrolysis mixture: 55.8%
[4]; 1 h
  % Oxycodone, % IVA-IVD in hydrolysis mixture: 69.6%
  % Oxycodone, % Va-Vd in hydrolysis mixture: 56.5%
[4]; 2 h
  % Oxycodone, % IVA-IVD in hydrolysis mixture: 83.9%
  % Oxycodone, % Va-Vd in hydrolysis mixture: 72.8%
[4]; 4.35 h
  % Oxycodone, % IVA-IVD in hydrolysis mixture: 87.9%
[4]; 10 h
  % Oxycodone, % IVA-IVD in hydrolysis mixture: 95.2%
[4]; 0.33 h
  % Oxycodone, % Va-Vd in hydrolysis mixture: 31.8%
[4]; 0.67 h
  % Oxycodone, % Va-Vd in hydrolysis mixture: 46.4%
[4]; 4 h
  % Oxycodone, % Va-Vd in hydrolysis mixture: 85.4%
